The values that follow come from publication PMC2072912 (Purinergic Signalling, 2007).

For assay [1], the system named is Achromobacter xylosoxidans (intact bacteria). In words: [3H]adenine competition binding, intact bacteria. Conditions: for activity at Achromobacter binding sites: A. xylosoxidans binding studies.
Assay [2] addresses T1, rat adenine receptor (Rattus norvegicus, UniProt Q7TN49).
T1 sequence (Q7TN49 1-304): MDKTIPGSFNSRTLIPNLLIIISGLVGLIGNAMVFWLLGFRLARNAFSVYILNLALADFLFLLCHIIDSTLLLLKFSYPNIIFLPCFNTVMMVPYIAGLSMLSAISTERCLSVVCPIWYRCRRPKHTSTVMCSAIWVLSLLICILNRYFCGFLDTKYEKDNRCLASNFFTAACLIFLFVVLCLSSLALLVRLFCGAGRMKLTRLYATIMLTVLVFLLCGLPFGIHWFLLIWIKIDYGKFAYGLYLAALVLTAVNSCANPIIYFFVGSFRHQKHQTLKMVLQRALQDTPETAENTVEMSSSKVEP
Conditions: read-out: IC50 previously determined for the rat adenine receptor; cited from earlier work.

The target of assay [3] is T1, rat adenine receptor. Conditions: read-out: IC50 previously determined for the rat adenine receptor; cited from earlier work. The source holds these as a separate data set.
Assay [4] deals with A. xylosoxidans membrane preparations. Briefly: [3H]adenine homologous competition, bacterial membrane preparations. The assay is classed as binding, Achromobacter xylosoxidans. Conditions: estimated from homologous competition, n = 3.
The target of assay [5] is A. lwoffii (intact bacteria). In words: [3H]adenine competition binding, intact bacteria. More on the design: species or system Acinetobacter lwoffii. Conditions: read-out: binding affinity (IC50); A. lwoffii intact cells.
For assay [6], the target named is A. denitrificans (intact bacteria). In words: [3H]adenine competition binding, intact bacteria. More on the design: species or system Achromobacter denitrificans. Conditions: read-out: binding affinity (IC50); A. denitrificans intact cells.
A further assay concerns mouse adenine receptor. Conditions: cited from earlier work.
In assay [7] the test system is A. denitrificans membrane preparations. Briefly: [3H]adenine homologous competition, bacterial membrane preparations. Conditions: read-out: binding affinity (IC50). More on the design: species or system Achromobacter denitrificans.
Assay [8] relates to A. lwoffii membrane preparations. Described as above. In kind it is binding, Acinetobacter lwoffii.
Assay [9] concerns microbial contaminations in Tris-HCl buffer. In words: Radioligand binding to stored. Conditions: no added protein.
Another assay has as its system Saccharomyces cerevisiae. Briefly: [3H]adenine binding to yeast control organism. Conditions: data not shown.

Like-named read-outs stand apart in the source and are kept apart here.

Regarding `Nc1nc(N)c2[nH]cnc2n1` [2,6-Diaminopurine], the “activity at Achromobacter binding sites” value in [1] was “completely inactive”.
Still for that read-out and setting: as for `Nc1nc(O)nc2nc[nH]c12` [2-Hydroxyadenine], the entry is “completely inactive”.
`C[C@H]1O[C@@H](n2cnc3c(N)ncnc32)[C@H](O)[C@@H]1O` [5′-deoxyadenosine]: the 50% inhibitory concentration (IC50) (in general, the point on the concentration scale where inhibition reaches its midpoint) on rat adenine receptor [2] is 823 nM.
As to `CCn1cnc2ncnc(N)c21` [7-ethyladenine], the IC50 on rat adenine receptor [3] is 47300 nM.
Consider `Nc1ncnc2nc(Br)[nH]c12` [8-bromoadenine], for which the IC50 on rat adenine receptor [3] is 17300 nM.
As to `Nc1ncnc2nc[nH]c12` [Adenine], the dissociation constant Kd (usually the free concentration of one partner at which half of the binding sites on the other are occupied at equilibrium, for simple one-to-one binding) is 5.84 ± 1.12 nM in [4] and 11 ± 1.2 nM in assay [1] (estimated from homologous competition, intact bacteria, n = 8). The 50% inhibitory concentration (IC50) is 299 nM in assay [5]; 29.9 nM on rat adenine receptor [3]; 253 nM in [6]; 13 nM in assay [1] (read-out: IC50 value for the A. xylosoxidans binding site, intact bacteria, versus 10 nM [3H]adenine); 2400 nM in assay [7]; 2350 nM in assay [8] (contaminant 3 membrane preparation, versus 10 nM [3H]adenine, n = 1). Moreover, in assay [8] (read-out: binding affinity (IC50), A. lwoffii membrane preparations), the IC50 was determined as 1000 nM. Also, the “affinity for the mouse adenine receptor” value in the assay with mouse adenine receptor is on record as 54.9 nM.
`Nc1ncnc2c1ncn2[C@@H]1O[C@H](CO)[C@@H](O)[C@H]1O` [Adenosine]: the “activity at Achromobacter binding sites” value in assay [1] was “completely inactive”.
`[3H]c1nc2ncnc(N)c2[nH]1` [[^3H]adenine, [8-^3H]Adenine]: the results for the “specific [3H]adenine binding” value in assay [9] (buffer stored 2 weeks at 4°C) and in assay [9] (buffer stored 6 weeks at 4°C) were 562 ± 19 cpm and “approximately 7,000 cpm”, respectively. In the assay with Saccharomyces cerevisiae, the “[3H]adenine binding” value is “no [^3H]adenine binding”.
